# Laboratory results taken from US9089565B2, “Compositions and methods for causing neurite outgrowth” (MEDICAL RESEARCH COUNCIL, priority 2009, dated 2015).
# Target: T1, NgR1 (Homo sapiens, UniProt Q9BZR6)
# T1 construct: The cDNAs of NgR1 (NM 023004, Nt. 184-1543); expressed in transfected cells; host or cells: COS7
# T1 sequence (Q9BZR6 27-447): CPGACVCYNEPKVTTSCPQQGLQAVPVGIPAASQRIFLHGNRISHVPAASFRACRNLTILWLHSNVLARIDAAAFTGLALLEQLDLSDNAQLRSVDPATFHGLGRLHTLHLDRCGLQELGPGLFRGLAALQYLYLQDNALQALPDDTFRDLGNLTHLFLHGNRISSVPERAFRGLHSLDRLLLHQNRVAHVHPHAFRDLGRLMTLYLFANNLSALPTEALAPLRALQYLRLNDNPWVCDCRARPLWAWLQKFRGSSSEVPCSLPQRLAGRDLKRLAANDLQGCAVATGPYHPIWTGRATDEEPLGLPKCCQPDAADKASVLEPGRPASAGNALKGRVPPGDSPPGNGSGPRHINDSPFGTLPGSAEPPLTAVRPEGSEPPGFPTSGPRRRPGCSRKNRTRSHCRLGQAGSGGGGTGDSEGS
# Assay: Binding of Nogo-66 fragment (Nogo-GFP) to COS7 cells over-expressing NgR1
# Settings: wild type NgR1
# Procedure: FIG. 3. CK2 phosphorylates NgR1, and inhibits binding of the myelin-associated proteins to NgR1. (A) Myc-tagged wild type, 281S/A or 281S/D mutant NgR1 were over-expressed in COS7 cells. The over-expressed cells were incubated with either the combination of ATP and CK2, or NEP1-40 for 30 min at 37° C. After washing with PBS, cells were incubated with Hisx6-tagged Nogo-GFP for 3 hours at 4° C. The cells were fixed and immunofluorescence was performed with anti-Myc and anti-GFP antibodies. (B) COS7 cells over-expressing Myc-tagged wild type NgR1 were treated as described in (A). Proteins were extracted and the Myc-tagged NgR1 was immunoprecipitated with anti-Myc antibody. Co-precipitated Hisx6-tagged Nogo-GFP was detected by anti-GFP antibody. (C) Cell surface proteins in NgR1-overexpressing COS7 cells were labelled with biotin. The biotinylated proteins were fractionated and analysed by SDS-PAGE. Biotinylated NgR1-Myc was detected with anti-Myc. antibody. (D) COS7 cells over-expressing either wild type NgR1-Myc or 281S/A mutant NgR1-Myc were incubated with ã-^32P-ATP in the presence or absence of CK2. Myc-tagged proteins were immunoprecipitated and analysed with SDS-PAGE. Proteins were blotted onto a PVDF membrane and the membrane was exposed to X-ray film to detect incorporated ^32P. After autoradiography, the membrane was used for immunoblotting with anti-Myc antibody. (E and F) COS7 cells over-expressing Myc-tagged wild type, 281S/A or 281S/D mutant NgR1, were treated as described in (A). After washing with PBS, cells were incubated with either His-tagged OMgp (E) or HA-tagged MAG (F) for 3 hours at 4° C. […]
# After treatment with or without CK2, COS7 cells over-expressing wild type or mutant NgR were incubated with Hisx6 tagged Nogo-GFP (10 μg/ml), HA-MAG (50 μg/ml) or Hisx6 tagged OMgp (10 μg/ml) in PBS for 3 hours at 4° C. […] Biotinylated proteins were precipitated with streptavidin beads and were analysed by SDS-PAGE. Each sample fractionated from 5×10^6 cells was analysed by SDS-PAGE. […]
molecule,measurement,setting,value
Nc1ncnc2c1ncn2[C@@H]1O[C@H](COP(=O)(O)OP(=O)(O)OP(=O)(O)O)[C@@H](O)[C@H]1O [ATP],"interaction of Nogo-66 fragment with over-expressed NgR1, immunoprecipitation",ATP or CK2 alone,failed to inhibit the interaction
"NEP1-40: a competitive inhibitor of Nogo-66 binding to NgR1 (MEDLDQSPLVSSSDSPPRPQPAFKYQFVREPEDEEEEEEE; Nogo-66 residues 1-40; UniProt Q9NQC3 1-40, looked up, fragment) [reference compound]","binding of the Nogo-66 fragment, immunofluorescence","pre-treatment 30 min (CK2 with ATP, or NEP1-40)",inhibited binding
